From ChEMBL document CHEMBL5042481, “Structure-Based Optimization of ML300-Derived, Noncovalent Inhibitors Targeting the Severe Acute Respiratory Syndrome Coronavirus 3CL Protease (SARS-CoV-2 3CLpro)” (J Med Chem, 2022)
Activity calls are given as the source filed them. The calls are words filed in the database; no cut-off is given here.

Legend:
SARS-CoV-2 [1] = experiment: Antiviral activity against SARS Cov-2 USA_WA1/2020 infected in Vero E6 cells expressing ACE2 reporter assessed as reduction in plaque formation at 0.21 to 50 uM and measured at 3 days post-infection by crystal violet staining based assay; type: functional, organism-based; details: Severe acute respiratory syndrome coronavirus 2, USA_WA1/2020, Vero C1008, 72 h
SARS-CoV-2 [2] = experiment: Antiviral activity against SARS Cov-2 USA_WA1/2020 infected in Vero E6 cells expressing ACE2 reporter assessed as inhibition of viral cytopathic effect measured after 68 hrs post infection by neutral red uptake assay; type: functional, organism-based; details: Severe acute respiratory syndrome coronavirus 2, USA_WA1/2020, Vero C1008, 68 h
[3] = Intrinsic clearance in human liver S9 fraction at 25 uM incubated for 1 hr in presence of NADPH by LC-MS/MS analysis; type: ADME, subcellular; details: read-out: CLH
[4] = Intrinsic clearance in human liver microsomes; type: ADME, Microsome; details: read-out: CLH
[5] = Intrinsic clearance in rat liver microsomes; type: ADME, Microsome; details: read-out: CLH
[6] = Protein binding in human plasma assessed as unbound fraction; type: ADME, cell-free
[7] = Protein binding in rat plasma assessed as unbound fraction; type: ADME, cell-free
[8] = Apparent passive permeability in MDCK-MDR1 cells; type: ADME, cell-based, Canis lupus familiaris; details: dog
CYP3A4 = CYP3A4 (Homo sapiens, UniProt P08684); experiment: Inhibition of CYP3A4 (unknown origin) at 10 uM relative to control; type: ADME
CYP2D6 = CYP2D6 (Homo sapiens, UniProt P10635); experiment: Inhibition of CYP2D6 (unknown origin) at 10 uM relative to control; type: ADME
CYP2C9 = CYP2C9 (Homo sapiens, UniProt P11712); experiment: Inhibition of CYP2C9 (unknown origin) at 10 uM relative to control; type: ADME
[9] = system: Severe acute respiratory syndrome coronavirus 2; details: dose microM <=100, time 30.0 min
[10] = system: Severe acute respiratory syndrome-related coronavirus; details: 1, dose microM <=100, time 30.0 min
SARS-CoV-2 [11] = experiment: Cytotoxicity against SARS CoV-2 infected Vero E6 cells assessed as reduction in cell viability; type: toxicity; details: chlorocebus sabaeus, vero c1008

CYP3A4, sequence (P08684 whole entry): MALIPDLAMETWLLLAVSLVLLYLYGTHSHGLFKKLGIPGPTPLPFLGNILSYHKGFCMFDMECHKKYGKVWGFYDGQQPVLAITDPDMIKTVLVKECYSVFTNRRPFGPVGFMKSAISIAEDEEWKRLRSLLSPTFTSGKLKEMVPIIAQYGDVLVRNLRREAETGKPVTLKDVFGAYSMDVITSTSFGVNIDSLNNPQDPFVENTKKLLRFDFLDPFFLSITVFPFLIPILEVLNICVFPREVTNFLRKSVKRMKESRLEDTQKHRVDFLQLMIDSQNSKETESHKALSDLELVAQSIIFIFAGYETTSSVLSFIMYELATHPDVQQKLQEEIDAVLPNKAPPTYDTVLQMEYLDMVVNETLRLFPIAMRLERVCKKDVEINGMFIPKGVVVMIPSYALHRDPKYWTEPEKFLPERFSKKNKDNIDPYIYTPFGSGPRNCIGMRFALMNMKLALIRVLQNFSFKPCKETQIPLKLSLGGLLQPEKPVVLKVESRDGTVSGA
CYP2C9, sequence (P11712 whole entry): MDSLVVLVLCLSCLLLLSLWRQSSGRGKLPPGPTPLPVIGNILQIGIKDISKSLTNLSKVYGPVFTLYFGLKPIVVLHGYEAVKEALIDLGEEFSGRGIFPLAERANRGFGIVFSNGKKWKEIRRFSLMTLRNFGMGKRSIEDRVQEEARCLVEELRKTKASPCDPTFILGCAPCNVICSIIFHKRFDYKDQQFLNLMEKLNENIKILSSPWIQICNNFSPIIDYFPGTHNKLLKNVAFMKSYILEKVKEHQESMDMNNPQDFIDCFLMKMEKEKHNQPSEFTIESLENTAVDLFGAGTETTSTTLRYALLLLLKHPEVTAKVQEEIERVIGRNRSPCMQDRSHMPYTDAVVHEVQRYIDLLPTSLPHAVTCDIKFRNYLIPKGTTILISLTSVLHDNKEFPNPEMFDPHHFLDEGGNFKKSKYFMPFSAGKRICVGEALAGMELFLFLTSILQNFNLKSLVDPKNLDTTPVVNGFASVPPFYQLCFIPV
CYP2D6, sequence (P10635 whole entry): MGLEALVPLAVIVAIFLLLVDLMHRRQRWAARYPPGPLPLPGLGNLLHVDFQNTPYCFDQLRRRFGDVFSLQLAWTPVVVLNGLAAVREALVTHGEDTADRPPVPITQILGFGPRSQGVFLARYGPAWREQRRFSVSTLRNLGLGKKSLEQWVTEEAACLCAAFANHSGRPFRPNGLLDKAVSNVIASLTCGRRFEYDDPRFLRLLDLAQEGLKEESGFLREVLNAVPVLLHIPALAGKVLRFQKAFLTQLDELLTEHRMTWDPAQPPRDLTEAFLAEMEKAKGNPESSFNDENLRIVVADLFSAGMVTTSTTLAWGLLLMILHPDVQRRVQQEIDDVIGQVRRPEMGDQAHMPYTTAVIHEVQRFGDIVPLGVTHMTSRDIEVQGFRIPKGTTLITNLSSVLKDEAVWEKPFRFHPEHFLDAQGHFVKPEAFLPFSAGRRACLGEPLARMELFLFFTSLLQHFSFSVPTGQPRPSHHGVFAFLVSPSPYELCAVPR

In the case of `O=C(Cn1nnc2ccccc21)N(Cc1cccc(Cl)c1)c1ccc(-c2cccnc2)cc1`, the EC50 (SARS-CoV-2 [1]) is reported as 11.1 µM and the EC50 (SARS-CoV-2 [2]) is reported as 7610 nM.

With `O=C(Cc1cncnc1)N(Cc1cccc(Cl)c1)c1ccc(-c2cn[nH]c2)cc1` the CLint scaled at 25 µM [3] was 145 mL/min/kg, the CLint scaled [4] was 620 mL/min/kg and the CLint scaled [5] was 3300 mL/min/kg. For the same molecule, the fraction unbound [6] was 0.018, the fraction unbound [7] was 0.11 and the Papp [8] was 66.7 ×10⁻⁶ cm/s. The inhibition at 10 µM (CYP3A4) was 88%, the inhibition at 10 µM (CYP2D6) was 26% and the inhibition at 10 µM (CYP2C9) was 92%.

`O=C(Cn1nnc2ccccc21)N(Cc1cccc(Cl)c1)c1ccc(-c2cn[nH]c2)cc1` showed an EC50 (SARS-CoV-2 [1]) of 3.31 µM, an EC50 (SARS-CoV-2 [2]) of 1980 nM and a CLint scaled at 25 µM [3] of 436 mL/min/kg. The CLint scaled [4] was 2620 mL/min/kg, the CLint scaled [5] was 5670 mL/min/kg and the fraction unbound [6] was 0.001. The Papp [8] was 39.4 ×10⁻⁶ cm/s, the inhibition at 10 µM (CYP3A4) was 96% and the inhibition at 10 µM (CYP2D6) was 63%. For the same molecule, the inhibition at 10 µM (CYP2C9) was 99%.

Molecule `O=C(Cc1cccnc1)N(Cc1cccc(Cl)c1)c1ccc(-c2cn[nH]c2)cc1` has a CLint scaled at 25 µM [3] of 256 mL/min/kg, a CLint scaled [4] of 981 mL/min/kg and a CLint scaled [5] of 3560 mL/min/kg. The fraction unbound [6] was 0.004, the fraction unbound [7] was 0.035 and the Papp [8] was 61.8 ×10⁻⁶ cm/s. For the same molecule, the inhibition at 10 µM (CYP3A4) was 99%, the inhibition at 10 µM (CYP2D6) was 55% and the inhibition at 10 µM (CYP2C9) was 99%.

`CCC(CC)COC(=O)[C@H](C)NP(=O)(OC[C@H]1O[C@@](C#N)(c2ccc3c(N)ncnn23)[C@H](O)[C@@H]1O)Oc1ccccc1` (single isomer, unassigned) gave an EC50 (SARS-CoV-2 [1]) of 0.43 µM and an EC50 (SARS-CoV-2 [2]) of 340 nM.

In the case of `O=C(Cn1nnc2ccccc21)N(Cc1cccc(Cl)c1)c1ccc(-c2cn[nH]c2)nc1`, the EC50 (SARS-CoV-2 [1]) is reported as 4.65 µM and the EC50 (SARS-CoV-2 [2]) is reported as 3810 nM.

With `O=C(Cn1nnc2ccccc21)N(Cc1ccsc1)c1ccc(-c2cccnc2)cc1` the inhibition [9] was “Active”, the inhibition [10] was “Active” and the EC50 (SARS-CoV-2 [1]) was 14.6 µM. The EC50 (SARS-CoV-2 [2]) was 12100 nM.

With `O=C(Nc1ccc(N(Cc2ccsc2)C(=O)Cn2nnc3ccccc32)cc1)C1CC1` the EC50 (SARS-CoV-2 [1]) was 28.2 µM and the EC50 (SARS-CoV-2 [2]) was 19900 nM.

`O=C(Cn1nnc2ccccc21)N(Cc1ccsc1)c1ccc(-c2c[nH]cn2)cc1` showed an EC50 (SARS-CoV-2 [1]) of 1.75 µM, an EC50 (SARS-CoV-2 [2]) of 1740 nM and a fraction unbound [6] of 0.01.

With `O=C(Cn1nnc2ccccc21)N(Cc1cccc(Cl)c1)c1ccc(-c2c[nH]cn2)cc1` the CC50 (SARS-CoV-2 [11]) was > 50 µM, the CLint scaled [4] was 141 mL/min/kg and the CLint scaled [5] was 589 mL/min/kg. The fraction unbound [6] was 0.007, the fraction unbound [7] was 0.018 and the Papp [8] was 46.1 ×10⁻⁶ cm/s. It also gave an inhibition at 10 µM (CYP3A4) of 100%, an inhibition at 10 µM (CYP2D6) of 87% and an inhibition at 10 µM (CYP2C9) of 100%.

For `O=C(Cn1nnc2ccccc21)N(Cc1ccsc1)c1ccc(-c2ccccc2)cc1`, the inhibition [9] was “inactive” and the inhibition [10] was “inactive”.

For `O=C(Cn1nnc2ccccc21)N(Cc1cccc(Cl)c1)c1ccc(-c2ccc[nH]c2=O)cc1`, the EC50 (SARS-CoV-2 [1]) was 16.7 µM and the EC50 (SARS-CoV-2 [2]) was 8770 nM.

Molecule `COc1cc(N(Cc2cccc(Cl)c2)C(=O)Cn2nnc3ccccc32)ccc1-c1cn[nH]c1` has an EC50 (SARS-CoV-2 [1]) of 3.24 µM and an EC50 (SARS-CoV-2 [2]) of 2930 nM.

Work on `COc1cc(-c2cn[nH]c2)ccc1N(Cc1cccc(Cl)c1)C(=O)Cn1nnc2ccccc21` yielded an EC50 (SARS-CoV-2 [1]) of 2.01 µM and an EC50 (SARS-CoV-2 [2]) of 2300 nM.

Work on `O=C(Cn1nnc2ccccc21)N(Cc1cccc(Cl)c1)c1ccc(-c2cn[nH]c2)cn1` yielded an EC50 (SARS-CoV-2 [1]) of 3.39 µM and an EC50 (SARS-CoV-2 [2]) of 1910 nM.
